Source: patent US20250277066A1, “Substituted Pyridine-2,6-Bis(Phenylenephenolate) Complexes with Enhanced Solubility that are Useful as Catalyst Components for Olefin Polymerization” (ExxonMobil Chemical Patents Inc., priority 2022, published 2025)
Where “and” joins values, the source holds several entries; their conditions need not be identical. Identical values can stand only once.

Legend:
[1] = Rapid GPC of polymers (Mn, Mw, Mz, PDI); type: physicochemical; parameters: Mn / Mw / Mz: unit not given here
Description: For analytical testing, polymer sample solutions were prepared by dissolving polymer in 1,2,4-trichlorobenzene (TCB, 99+% purity from Sigma-Aldrich) containing 2,6-di-tert-butyl-4-methylphenol (BHT, 99% from Aldrich) at 165° C. in a shaker oven for approximately 3 hours. The typical concentration of polymer in solution was between 0.1 to 0.9 mg/mL with a BHT concentration of 1.25 mg BHT/mL of TCB. Samples were cooled to 135° C. for testing.
High temperature size exclusion chromatography was performed using an automated “Rapid GPC” system as described in U.S. Pat. Nos. 6,491,816; 6,491,823; 6,475,391; 6,461,515; 6,436,292; 6,406,632; 6,175,409; 6,454,947; 6,260,407; and 6,294,388; each of which is incorporated herein by reference. Molecular weights (weight average molecular weight (Mw), number average molecular weight (Mn) and z average molecular weight (Mz)) and molecular weight distribution (MWD=Mw/Mn), which is also sometimes referred to as the polydispersity (PDI) of the polymer, were measured by Gel Permeation Chromatography using a Symyx Technology GPC equipped with evaporative light scattering detector (ELSD) and calibrated using polystyrene standards (Polymer Laboratories: Polystyrene Calibration Kit S-M-10: Mp (peak Mw) between 5,000 and 3,390,000). Alternatively, samples were measured by Gel Permeation Chromatography using a Symyx Technology GPC equipped with dual wavelength infrared detector and calibrated using polystyrene standards (Polymer Laboratories: Polystyrene Calibration Kit S-M-10: Mp (peak Mw) between 580 and 3,039,000). […] No column spreading corrections were employed. Numerical analyses were performed using Epoch® software available from Symyx Technologies or Automation Studio software available from Freeslate. The molecular weights obtained are relative to linear polystyrene standards. Molecular weight data is reported in Table 2 under the headings Mn, Mw, Mz and PDI as defined above.

[2] = Propylene polymerization (PP) in small-scale autoclave reactors: yield, quench time, catalyst activity; details: activator A
Excerpt: Solutions of the pre-catalysts were made using toluene (ExxonMobil Chemical—anhydrous, stored under N2) (98%) or isohexane (ExxonMobil Chemical—polymerization grade, and purified as described below). Pre-catalyst solutions were typically 0.25 mmol/L.
Solvents, polymerization grade toluene and/or isohexanes were supplied by ExxonMobil Chemical Co. and are purified by passing through a series of columns: two 500 cc Oxyclear cylinders in series from Labclear (Oakland, Calif), followed by two 500 cc columns in series packed with dried […] (8-12 mesh; Aldrich Chemical Company), and two 500 cc columns in series packed with dried 5 Å mole sieves (8-12 mesh; Aldrich Chemical Company).
Polymerization grade propylene (C3) was used and further purified by passing it through a series of columns: 2250 cc Oxiclear cylinder from Labclear followed by a 2250 cc column packed with 3 Å mole sieves (8-12 mesh; Aldrich Chemical Company), then two 500 cc columns in series packed with 5 Å mole sieves (8-12 mesh; Aldrich Chemical Company), then a 500 cc column packed with Selexsorb CD (BASF), and finally a 500 cc column packed with Selexsorb COS (BASF).
Activation of the pre-catalysts was either by dimethylanilinium tetrakisperfluorophenylborate (Boulder Scientific or Albemarle Corp; Act ID=A) or is (hydrogenated tallow alkyl)methylammonium tetrakis(pentafluorophenyl)borate supplied as a 10 wt % solution in methylcyclohexane (Boulder Scientific; Act ID=B). Activators were typically used as a 0.25 mmol/L solution in toluene or isohexane.
Tri-n-octylaluminum (TnOAl or TNOA, Neat, AkzoNobel) was also used as a scavenger prior to introduction of the activator and pre-catalyst into the reactor. TNOA was typically used as a 5 mmol/L solution in toluene or isohexane.
Polymerizations were conducted in an inert atmosphere (N2) drybox using autoclaves equipped with an external heater for temperature control, glass inserts (internal volume of reactor=23.5 mL for C2 and C2/C8; 22.5 mL for C3 runs), septum inlets, regulated supply of nitrogen, ethylene and propylene, and equipped with disposable PEEK mechanical stirrers (800 RPM). The autoclaves were prepared by purging with dry nitrogen at 110° C. or 115° C. for 5 hours and then at 25° C. for 5 hours.
The reactor was prepared as described above, then heated to 40° C., and then purged with propylene gas at atmospheric pressure. Toluene or isohexanes, liquid propylene (1.0 mL) and scavenger (TNOA, 0.5 μmol) were added via syringe. The reactor was then brought to process temperature (70° C. or 100° C.) while stirring at 800 RPM. The activator solution, followed by the pre-catalyst solution, were injected via syringe to the reactor at process conditions. Reactor temperature was monitored and typically maintained within +/−1° C. Polymerizations were halted by addition of approximately 50 psi compressed dry air gas mixture to the autoclaves for approximately 30 seconds. The polymerizations were quenched based on a predetermined pressure loss (maximum quench value) or for a maximum of 30 minutes. The reactors were cooled and vented. The polymers were isolated after the solvent was removed in-vacuo. The actual quench time (s) is reported as quench time (s). Yields reported include total weight of polymer and residual catalyst. Catalyst activity is reported as grams of polymer per mmol transition metal compound per hour of reaction time (g/mmol·hr).
Polymerization results are collected in Tables 2 below. “Ex #” stands for example number. Example numbers starting with a “C” are comparative examples. “Cat ID” identifies the pre-catalyst used in the experiment. Corresponding numbers identifying the pre-catalyst (also referred to as pre-catalyst, catalyst, complex or compound) are located in the synthetic experimental section. T(° C.) is the polymerization temperature which was typically maintained within +/−1° C. “Yield” is polymer yield, and is not corrected for catalyst residue. […]

[3] = DSC melting point of polymers (TA-Q100); type: physicochemical
Description: Differential Scanning Calorimetry (DSC) measurements were performed on a TA-Q100 instrument to determine the melting point of the polymers. Samples were pre-annealed at 220° C. for 15 minutes and then allowed to cool to room temperature overnight. The samples were then heated to 220° C. at a rate of 100° C./minute and then cooled at a rate of 50° C./minute. Melting points were collected during the heating period. The results are reported in the Table 2 under the heading, Tm (° C.).

[4] = Solubility of complexes in isohexane (Method 1 or Method 2); type: physicochemical; details: ambient temperature (20° C.-25° C.), mass includes residual solvent
Description: Solubility studies for all other complexes were performed using material as synthesized. […] Solvents used were sparged with nitrogen (30-60 minutes) and dried over 3 Å mole sieves. Unless stated otherwise all measurements were performed at ambient temperature (20° C.-25° C.).
General procedure: Solubility was determined using the following Method 1 or Method 2. For calculations, a value of 0.672 g/mL was used for the density of isohexane.
Method 1: A tared vial was loaded with a small amount of the complex (actual mass recorded, including any residual solvent as noted above, typically 5-30 mg). Then a small stir bar (8 mm) was added. Solvent was then added and the mixture was stirred rapidly (1000 rpm). […] This process was repeated until either a clear solution was obtained (no visible solids or murkiness) or the vial was full. As the mixture approached homogeneity (i.e., few remaining solids observed) the volume of the solvent additions was kept small (<1 mL) to minimize excess beyond the solvent required to achieve homogeneity. The stir bar was then removed and the mass of the mixture was measured. If a clear solution had formed then the solubility of the complex was calculated as a single value, based on the mass of complex and the amount of solvent added to achieve a homogeneous solution. If the mixture remained heterogeneous (visible solids or murky), then the value reported is given as being “less than” the calculated value.
Method 2: A measured amount of complex (actual mass recorded, including any residual solvent as noted above) was added to a tared vial, followed by a stir bar. Dry isohexanes were added in small portions and the resulting mixture was stirred after each portion of isohexanes. If a clear solution had formed then the solubility was reported as a range, the lower bound of solubility calculated using the total solvent added to achieve a homogenous solution and the upper bound of solubility calculated using the total solvent measured prior to achieving a homogenous solution. If the mixture remained heterogeneous (visible solids or murky), the upper bound of solubility was calculated using the total solvent added. Formula used to calculate solubility are listed below. Solvent present in the complex is included in the mass and formula weight of the complexes.

[5] = polymer made with activator A, T 70 ° C.
[6] = polypropylene made with activator A at 70° C.
[7] = polypropylene made with activator A at 70° C., Mw/Mn
[8] = polypropylene made with activator A at 100° C.
[9] = polypropylene made with activator A at 100° C., Mw/Mn

Row | SMILES | Mn [1, 5] | Mw [1, 5] | Mz [1, 5] | PDI [1, 5] | Activity ([2]; T 70° C.) | Tm [3, 5] | Mn [1, 6] | Mw [1, 6] | Mz [1, 6] | PDI [1, 7] | Mn [1, 8] | Mw [1, 8] | Mz [1, 8] | PDI [1, 9] | Activity ([2]; T 100° C.) | Tm [3, 6] | Tm [3, 8] | Solubility (s) in Isohexane [4] | Solubility (s) in Isohexane (wt %) [4]
1 | Cc1cc2[n+]3c(c1)-c1ccccc1-c1cc(C(C)(C)C)cc(C45CC6CC(CC(C6)C4)C5)c1[O][Zr-]3([CH3])([CH3])[O]c1c(cc(C(C)(C)C)cc1C13CC4CC(CC(C4)C1)C3)-c1ccccc1-2 [compound 3] | 206,080 | 676,784 | 2,471,266 | 3.28 | 1,251,771 g P/mmol cat • hr | 150.7 °C | – | – | – | – | – | – | – | – | – | – | – | – | –
2 | Cc1cc2c(c(C34CC5CC(C)(CC(C)(C5)C3)C4)c1)[O][Hf-]1([CH3])([CH3])[O]c3c(cc(C)cc3C34CC5CC(C)(CC(C)(C5)C3)C4)-c3ccccc3-c3cc(N4CCCC4)cc([n+]31)-c1ccccc1-2 [Complex 30] | – | – | – | – | 7,103 g P/mmol cat • hr and 6,836 g P/mmol cat • hr and 8,533 g P/mmol cat • hr | – | 186,851 and 187,906 and 245,411 | 346,587 and 346,773 and 427,041 | 762,107 and 711,356 and 871,754 | 1.85 and 1.74 | 86,554 and 106,308 and 121,006 | 147,732 and 177,827 and 199,815 | 301,600 and 354,753 and 438,188 | 1.71 and 1.67 and 1.65 | 4,453 g P/mmol cat • hr and 6,707 g P/mmol cat • hr and 8,689 g P/mmol cat • hr | 163.3 °C and 163.5 °C and 164.8 °C | 158.0 °C and 158.7 °C and 159.0 °C | – | –
3 | Cc1cc2c(c(C34CC5CC(CC(C5)C3)C4)c1)[O][Zr-]1([CH3])([CH3])[O]c3c(cc(C)cc3C34CC5CC(CC(C5)C3)C4)-c3ccccc3-c3cccc([n+]31)-c1ccccc1-2 [Complex 1] | – | – | – | – | 5,668,800 g P/mmol cat • hr and 7,619,077 g P/mmol cat • hr and 6,920,571 g P/mmol cat • hr | – | 57,753 and 64,376 and 67,290 | 372,797 and 502,821 and 428,075 | 1,464,190 and 2,141,863 and 1,753,319 | 6.46 and 7.81 and 6.36 | 28,762 and 34,553 and 48,560 | 152,087 and 155,815 and 169,007 | 646,646 and 665,846 and 624,200 | 5.29 and 4.51 and 3.48 | 3,931,500 g P/mmol cat • hr and 4,448,471 g P/mmol cat • hr and 2,644,800 g P/mmol cat • hr | 147.5 °C and 147.3 °C and 148.1 °C | 145.8 °C and 147.0 °C | <600 µM | <0.08 wt %
